Measurements from PubChem BioAssay AID330 (DTP/NCI, 2004).
Values joined by “and” are separate entries in the source; they are usually repeats but may differ in a detail not shown here. Identical values can stand only once. Inconclusive results and toxic doses are left out.

System: P388 leukemia ip, CD2F1 mice, survival T/C
Experiment: NCI In Vivo Anticancer Drug Screen. Data for tumor model P388 Leukemia (intraperitoneal) in CD2F1 (CDF1) mice
Conditions: endpoint: median survival time, higher = longer survival
Procedure, shortened: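 Mice carrying the transplanted tumor received test compound or vehicle. Survival was recorded in each group, and the value is the treated-group measurement divided by that of the vehicle-treated control group.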

[1] = dose: 50.0 mg/kg/injection, schedule: Q01DX009 (ip), vehicle: saline
[2] = dose: 25.0 mg/kg/injection, schedule: Q01DX005 (ip), vehicle: saline with Tween-80
[3] = dose: 50.0 mg/kg/injection, schedule: Q01DX005 (ip), vehicle: saline with Tween-80
[4] = dose: 50.0 mg/kg/injection, schedule: Q01DX009 (ip), vehicle: saline with Tween-80
[5] = dose: 100.0 mg/kg/injection, schedule: Q01DX009 (ip), vehicle: saline with Tween-80
[6] = dose: 200.0 mg/kg/injection, schedule: Q01DX009 (ip), vehicle: saline with Tween-80
[7] = dose: 100.0 mg/kg/injection, schedule: Q01DX005 (ip), vehicle: saline with Tween-80
[8] = dose: 200.0 mg/kg/injection, schedule: Q01DX005 (ip), vehicle: saline with Tween-80

`[Cl][Pt+2][Cl].[NH-]C(C(=O)O)C([NH-])C(=O)O` (configuration not stated) was tested, and the T/C (dose: 6.25 mg/kg/injection, schedule: Q04DX002 (ip), vehicle: saline) was 96 % of control, the T/C (dose: 12.5 mg/kg/injection, schedule: Q04DX002 (ip), vehicle: saline) was 96 % of control and the T/C (dose: 25.0 mg/kg/injection, schedule: Q04DX002 (ip), vehicle: saline) was 100 % of control. For the same compound, the T/C (dose: 50.0 mg/kg/injection, schedule: Q04DX002 (ip), vehicle: saline) was 117 % of control, the T/C (dose: 100.0 mg/kg/injection, schedule: Q04DX002 (ip), vehicle: saline) was 101 % of control and the T/C (dose: 200.0 mg/kg/injection, schedule: Q04DX002 (ip), vehicle: saline) was 97 % of control.

In the case of `CS(=O)(=O)OCCN(CCOS(C)(=O)=O)c1ccc(C=Nc2ccc(-c3csc(Cc4ccccc4)n3)cc2)cc1`, the T/C (dose: 6.25 mg/kg/injection, schedule: Q01DX009 (ip), vehicle: saline) was 115 % of control, the T/C (dose: 12.5 mg/kg/injection, schedule: Q01DX009 (ip), vehicle: saline) was 110 % of control and the T/C (dose: 12.5 mg/kg/injection, schedule: Q01DX009 (ip), vehicle: suspension in saline) was 163 % of control. For the same compound, the T/C (dose: 25.0 mg/kg/injection, schedule: Q01DX009 (ip), vehicle: suspension in saline) was 164 % of control, the T/C [1] was 153 % of control and the T/C (dose: 50.0 mg/kg/injection, schedule: Q01DX009 (ip), vehicle: suspension in saline) was 174 % of control.

With `COc1cccc2c1C(=O)c1c(O)c3c(c(O)c1C2=O)CC(O)(C(=O)CBr)CC3OC1CC(OC(C)=O)C(OC(C)=O)C(C)O1` (configuration not stated) the T/C (dose: 3.13 mg/kg/injection, schedule: Q04DX003 (ip), vehicle: distilled water + Tween-80) was 108 % of control, the T/C (dose: 6.25 mg/kg/injection, schedule: Q04DX003 (ip), vehicle: distilled water + Tween-80) was 98 % of control and the T/C (dose: 12.5 mg/kg/injection, schedule: Q04DX003 (ip), vehicle: distilled water + Tween-80) was 106 % of control. The T/C (dose: 25.0 mg/kg/injection, schedule: Q04DX003 (ip), vehicle: distilled water + Tween-80) was 109 % of control and the T/C (dose: 50.0 mg/kg/injection, schedule: Q04DX003 (ip), vehicle: distilled water + Tween-80) was 105 % of control.

For `CCC1=C[C@H]2CN(CCc3c([nH]c4ccccc34)[C@@](C(=O)OC)(c3cc4c(cc3OC)N(C)[C@H]3[C@@](O)(C(=O)NC)[C@H](OC(C)=O)[C@]5(CC)C=CCN6CC[C@]43[C@@H]65)C2)C1`, the T/C (dose: 0.02 mg/kg/injection, schedule: Q01DX009 (ip), vehicle: water) was 102 % of control, the T/C (dose: 0.03 mg/kg/injection, schedule: Q01DX009 (ip), vehicle: water) was 100 % of control and the T/C (dose: 0.12 mg/kg/injection, schedule: Q04DX003 (ip), vehicle: water) was 151 % of control. For the same compound, the T/C (dose: 0.13 mg/kg/injection, schedule: Q01DX009 (ip), vehicle: water) was 114 % of control and 203 % of control, the T/C (dose: 0.25 mg/kg/injection, schedule: Q01DX001 (ip), vehicle: water) was 110 % of control and the T/C (dose: 0.25 mg/kg/injection, schedule: Q01DX009 (ip), vehicle: water) was 220 % of control and 192 % of control and 214 % of control. For the same compound, the T/C (dose: 0.25 mg/kg/injection, schedule: Q04DX003 (ip), vehicle: water) was 187 % of control, the T/C (dose: 0.5 mg/kg/injection, schedule: Q01DX001 (ip), vehicle: water) was 119 % of control and the T/C (dose: 0.5 mg/kg/injection, schedule: Q04DX003 (ip), vehicle: water) was 214 % of control. The T/C (dose: 1.0 mg/kg/injection, schedule: Q01DX009 (ip), vehicle: water) was 87 % of control, the T/C (dose: 1.0 mg/kg/injection, schedule: Q04DX003 (ip), vehicle: water) was 232 % of control and the T/C (dose: 2.0 mg/kg/injection, schedule: Q01DX001 (ip), vehicle: water) was 150 % of control. For the same compound, the T/C (dose: 4.0 mg/kg/injection, schedule: Q01DX001 (ip), vehicle: water) was 154 % of control and the T/C (dose: 8.0 mg/kg/injection, schedule: Q01DX001 (ip), vehicle: water) was 180 % of control.

With `CN(C)CCOc1cccc(NC2=C(Cl)C(=O)C(Nc3cccc(OCCN(C)C)c3)=C(Cl)C2=O)c1` the T/C (dose: 1.56 mg/kg/injection, schedule: Q01DX005 (ip), vehicle: Klucel (hydroxypropylcellulose) (HPC)) was 100 % of control and 107 % of control, the T/C (dose: 3.12 mg/kg/injection, schedule: Q01DX005 (ip), vehicle: Klucel (hydroxypropylcellulose) (HPC)) was 107 % of control and 96 % of control and the T/C (dose: 6.25 mg/kg/injection, schedule: Q01DX005 (ip), vehicle: Klucel (hydroxypropylcellulose) (HPC)) was 104 % of control and 122 % of control and 97 % of control.

`C/C(=N\NC(=S)N1CCC(C)CC1)c1nccs1` was tested, and the T/C (dose: 12.5 mg/kg/injection, schedule: Q01DX005 (ip), vehicle: saline with Tween-80) was 106 % of control, the T/C [2] was 116 % of control and the T/C [3] was 118 % of control.

In the case of `CC1C(C(=O)c2ccccc2)=CNc2ccccc21` (configuration not stated), the T/C (dose: 100.0 mg/kg/injection, schedule: Q01DX001 (ip), vehicle: saline with Tween-80) was 91 % of control, the T/C (dose: 200.0 mg/kg/injection, schedule: Q01DX001 (ip), vehicle: saline with Tween-80) was 96 % of control and the T/C (dose: 400.0 mg/kg/injection, schedule: Q01DX001 (ip), vehicle: saline with Tween-80) was 92 % of control.

`CCOc1ccccc1N=Nc1c(C)nn(C(=S)S)c1OCC` was tested, and the T/C (dose: 60.0 mg/kg/injection, schedule: Q01DX005 (ip), vehicle: Klucel + Tween-80) was 97 % of control, the T/C (dose: 120.0 mg/kg/injection, schedule: Q01DX005 (ip), vehicle: Klucel + Tween-80) was 95 % of control and the T/C (dose: 240.0 mg/kg/injection, schedule: Q01DX005 (ip), vehicle: Klucel + Tween-80) was 100 % of control.

In the case of `COC1C/C(=N\OC(C)=O)C2OC(c3ccccc3)OCC2O1` (configuration not stated), the T/C [4] was 93 % of control, the T/C [5] was 96 % of control and the T/C [6] was 95 % of control.

In the case of `COC(=O)c1ccc(C)c(NS(=O)(=O)c2ccc3c(c2)c(=O)sn3C)c1`, the T/C [3] was 102 % of control, the T/C [7] was 110 % of control and the T/C [8] was 112 % of control.

For `CC(=O)Cc1c(-c2ccccc2)nc(=S)[nH]c1C`, the T/C [1] was 100 % of control and 97 % of control, the T/C (dose: 100.0 mg/kg/injection, schedule: Q01DX009 (ip), vehicle: saline) was 91 % of control and 92 % of control and the T/C (dose: 200.0 mg/kg/injection, schedule: Q01DX009 (ip), vehicle: saline) was 100 % of control and 94 % of control and 96 % of control.

With `[N-]=[N+]=CC(=O)C1(c2ccccc2)OC1c1ccccc1` (configuration not stated) the T/C [2] was 91 % of control, the T/C [3] was 86 % of control and the T/C [7] was 94 % of control. For the same compound, the T/C [8] was 86 % of control.

With `CCOC(=O)C(SC#N)[Se]c1ccccc1` (configuration not stated) the T/C [3] was 106 % of control and the T/C [7] was 109 % of control.

With `COP(=O)(CC(=O)CCCCC1OCCO1)OC` the T/C (dose: 60.0 mg/kg/injection, schedule: Q01DX005 (ip), vehicle: saline) was 110 % of control, the T/C (dose: 120.0 mg/kg/injection, schedule: Q01DX005 (ip), vehicle: saline) was 105 % of control and the T/C (dose: 240.0 mg/kg/injection, schedule: Q01DX005 (ip), vehicle: saline) was 100 % of control.

With `CO[C@H]1/C=C/O[C@@]2(C)Oc3c(C)c(O)c4c(O)c(c(/C=N/N5C(C)CN(Cc6ccc(C#N)cc6)CC5C)c(O)c4c3C2=O)NC(=O)/C(C)=C\C=C\[C@H](C)[C@H](O)[C@@H](C)[C@@H](O)[C@@H](C)[C@H](OC(C)=O)[C@@H]1C` (some centres not stated) the T/C (dose: 12.5 mg/kg/injection, schedule: Q01DX009 (ip), vehicle: Klucel (hydroxypropylcellulose) (HPC)) was 93 % of control, the T/C (dose: 12.5 mg/kg/injection, schedule: Q01DX009 (ip), vehicle: saline with Tween-80) was 107 % of control and the T/C (dose: 25.0 mg/kg/injection, schedule: Q01DX009 (ip), vehicle: Klucel (hydroxypropylcellulose) (HPC)) was 87 % of control. For the same compound, the T/C (dose: 25.0 mg/kg/injection, schedule: Q01DX009 (ip), vehicle: saline with Tween-80) was 92 % of control, the T/C (dose: 50.0 mg/kg/injection, schedule: Q01DX009 (ip), vehicle: Klucel (hydroxypropylcellulose) (HPC)) was 86 % of control and the T/C [4] was 100 % of control and 95 % of control. For the same compound, the T/C (dose: 100.0 mg/kg/injection, schedule: Q01DX009 (ip), vehicle: Klucel (hydroxypropylcellulose) (HPC)) was 107 % of control, the T/C [5] was 113 % of control and the T/C (dose: 200.0 mg/kg/injection, schedule: Q01DX009 (ip), vehicle: Klucel (hydroxypropylcellulose) (HPC)) was 107 % of control.

With `COc1cc(OC)c(C(=O)O)cc1C(C)=O` the T/C [4] was 105 % of control, the T/C [5] was 115 % of control and the T/C [6] was 96 % of control.

In the case of `C=C1C(=O)C23C(OC(=O)CCCCCCCCCCC)C1CCC2C12COC3(O)C(O)C1C(C)(C)CCC2O` (configuration not stated), the T/C (dose: 3.75 mg/kg/injection, schedule: Q01DX009 (ip), vehicle: saline with Tween-80) was 98 % of control, the T/C (dose: 7.5 mg/kg/injection, schedule: Q01DX009 (ip), vehicle: saline with Tween-80) was 103 % of control and the T/C (dose: 15.0 mg/kg/injection, schedule: Q01DX009 (ip), vehicle: saline with Tween-80) was 95 % of control. The T/C (dose: 30.0 mg/kg/injection, schedule: Q01DX009 (ip), vehicle: saline with Tween-80) was 100 % of control.

In the case of `C=C[CH2][Sn]([CH3])([CH3])[CH2]C=C`, the T/C (dose: 50.0 mg/kg/injection, schedule: Q01DX005 (ip), vehicle: saline) was 96 % of control and the T/C (dose: 100.0 mg/kg/injection, schedule: Q01DX005 (ip), vehicle: saline) was 107 % of control.

In the case of `CC(C)CN1CC(=O)N2CCCC(C)N2C(=O)C1` (configuration not stated), the T/C [3] was 100 % of control, the T/C [7] was 99 % of control and the T/C [8] was 102 % of control.
